Patent publication US20220304974A1, “COMPOSITION COMPRISING GOSSYPETIN FOR PREVENTION OR TREATMENT OF NEURODEGENERATIVE DISEASE” (NOVMETAHEALTH CO.,LTD., priority 2019, published 2022)

Legend:
[1] = system: U2OS cells expressing VRK2; assay: Intracellular polyglutamine protein aggregation (dot blot, electrophoresis, microscopy), different concentrations of gossypetin; format: cell-based
Method: Polyglutamine protein aggregation is a cause of a degenerative brain disease. In order to investigate the polyglutamine protein aggregation inhibitory effect of gossypetin, U2OS cells expressing VRK2 were treated with different concentrations of gossypetin after the expression of a green fluorescent protein-conjugated polyglutamine protein, and a dot blot assay was performed. The protein aggregates formed in the cells were observed via electrophoresis, and the intracellular protein aggregate formation was observed using a microscope and quantitatively expressed.

VRK2 [2] = target: T1, VRK2 (Homo sapiens, UniProt Q86Y07); assay: VRK2 activity inhibition (in vitro kinase assay, autophosphorylation); format: biochemical
Description: The kinase VRK2 is known to prevent the elimination of polyglutamine aggregates by regulating TRiC chaperone protein in cells.
The cytotoxicity of each compound was also examined.

VRK2 [3] = target: T1, VRK2; assay: Binding between VRK2 and gossypetin-Sepharose 4B
Description: First, gossypetin was chemically bound to Sepharose 4B (FIG. 2A), and then the binding between gossypetin and VRK2 was investigated.

Aβ amyloid aggregates = assay: Immunohistochemistry staining of Aβ amyloid aggregates in brain slices; format: in vivo, mouse; settings: hippocampus and frontal lobe tissues; mice fed with gossypetin; FIGS. 6A to 6F
Method: The brains were extracted from the groups of Alzheimer's disease-induced mice fed and not fed with gossypetin and were made into slices, and then the formation of Aβ amyloid aggregates was analyzed using immunohistochemistry staining.

chaperone protein CCT-4 = assay: Chaperone protein preservation (amount of CCT-4); settings: addition of gossypetin; FIG. 2E
microglia and astrocytes = assay: Gliosis analysis with IBA-1 and GFAP antibodies in brain slices; format: in vivo, mouse; settings: hippocampus and frontal lobe tissues; FIGS. 8 and 9
Method: The brains were extracted from the groups of Alzheimer's disease-induced mice fed and not fed with gossypetin and were made into slices, and then the distribution and proliferation of microglia and astrocytes were analyzed using an antibody against IBA-1, a specific protein of microglia, and an antibody against GFAP, a specific protein of astrocytes.

[4] = system: 5×FAD Alzheimer's disease-induced mice; assay: Y-maze test in Alzheimer's disease-induced mice; format: in vivo, mouse; settings: for cognitive function (Y-maze test): 5×FAD mice, oral 10 mg/kg for 15 weeks from 8 weeks of age, FIG. 12
Method: (§1) […] Thereafter, Y-maze and Morris water maze tests were performed, which are widely used to check cognitive function. Specifically, short-term memory was assessed through the Y-maze test. The Morris water maze test was performed one week after the Y-maze test. Each mouse was trained to remember the location of the platform for 5 days, and then the time for the mouse to reach the platform was measured. On day 6 after the platform memory training, the platform was removed from the water tank, and the frequency of mouse staying at the site where the platform had been located was measured.

cells = assay: Cytotoxicity of each compound; format: cell-based; settings: FIG. 11C
Method: (§2) In addition, cells were treated with each compound together with the induction of polyglutamine protein aggregation, and the reduction in amount of protein aggregation in the cells was observed using a fluorescence microscope. The total area of protein aggregation occurring in the cells, average size of protein aggregation, and inhibition rate of protein aggregation compared with the drug-untreated control group are shown in the table. The cytotoxicity of each compound was also examined.

[5] = system: 5×FAD Alzheimer's disease-induced mice; assay: Morris water maze test in Alzheimer's disease-induced mice; format: in vivo, mouse; settings: 5×FAD mice; for memory of the platform site (water maze test): oral 10 mg/kg for 16 weeks from 8 weeks of age, platform removed on Day 6, FIG. 13
Method: as §1
In the water maze test, the mice were trained to find a platform placed under the surface in a water tank for 5 days, and then on Day 6, the platform was removed, and it was monitored how well the mice remembered the site where the platform had been located.

[6] = system: polyglutamine protein aggregation in the cells; assay: Intracellular polyglutamine protein aggregation, comparison of compounds (fluorescence microscope); format: cell-based; settings: compared with the drug-untreated control group; FIGS. 11A and 11B
Method: as §2

T1 sequence (Q86Y07 whole entry, species assumed): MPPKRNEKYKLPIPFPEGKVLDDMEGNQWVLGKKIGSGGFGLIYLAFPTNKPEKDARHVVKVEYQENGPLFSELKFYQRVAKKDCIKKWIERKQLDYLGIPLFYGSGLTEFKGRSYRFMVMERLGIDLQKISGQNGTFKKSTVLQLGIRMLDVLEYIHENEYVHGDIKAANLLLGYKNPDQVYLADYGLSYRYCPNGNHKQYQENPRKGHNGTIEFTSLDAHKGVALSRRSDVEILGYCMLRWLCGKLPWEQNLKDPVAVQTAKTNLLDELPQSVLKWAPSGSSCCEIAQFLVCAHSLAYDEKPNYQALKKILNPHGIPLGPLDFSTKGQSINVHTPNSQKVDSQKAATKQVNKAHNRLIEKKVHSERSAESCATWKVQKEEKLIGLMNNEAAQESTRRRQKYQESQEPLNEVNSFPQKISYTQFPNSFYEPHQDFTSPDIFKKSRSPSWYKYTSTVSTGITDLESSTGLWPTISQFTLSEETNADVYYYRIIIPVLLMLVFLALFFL

Row | SMILES | number of protein aggregate-bearing cells ([1]; FIGS. 1F to 1H) | polyglutamine protein aggregates ([1]; different concentrations of gossypetin, FIGS. 1A and 1B) | VRK2 activity (VRK2 [2]; different concentrations of gossypetin, FIG. 2D) | autophosphorylation activity of VRK2 (VRK2 [2]; same concentration of 25 μM, FIG. 10) | interaction between gossypetin and VRK2 (competition by added gossypetin) (VRK2 [3]; addition of gossypetin, FIG. 2C) | binding between gossypetin and VRK2 (VRK2 [3]; gossypetin-Sepharose 4B vs Sepharose 4B, FIG. 2B) | Aβ amyloid aggregates (Aβ amyloid aggregates) | amount of the chaperone protein CCT-4 (chaperone protein CCT-4) | hyperactivity of microglia and astrocytes (gliosis) (microglia and astrocytes) | cognitive function (Y-maze test) [4] | short-term memory (Y-maze test) ([4]; 7-week-old 5×FAD mice, oral 10 mg/kg for 14 weeks, FIG. 3C) | cytotoxicity (cells) | time to find the platform (escape latency) ([5]; oral 10 mg/kg for 14 weeks, 5 days training, FIG. 4) | frequency of staying at the site where the platform had been located ([5]; oral 10 mg/kg for 14 weeks, platform removed, day 6, FIG. 5) | memory of the platform site (water maze test) [5] | inhibition of the intracellular protein aggregation [6]
1 | O=c1c(O)c(-c2ccc(O)c(O)c2)oc2c(O)c(O)cc(O)c12 [gossypetin, 2-(3,4-dihydroxyphenyl)-3,5,7,8-tetrahydroxy-4H-chromen-4-one] | decreased | reduced depending on the gossypetin concentration | inhibited depending on the concentration of gossypetin | most strongly inhibited | specific | VRK2 and gossypetin bound to each other | significantly reduced | not decreased but increased | significantly reduced | restored the behavioral alteration to an almost normal level | improvement in short-term memory to a level similar to that of normal mice | not showing toxicity in cells | found the platform in a shorter amount of time which was almost as fast as normal mice | increased frequency of staying at the site where the platform had been located | excellent memory comparable to normal mice | 43%
2 | O=C(/C=C/c1ccc(O)c(O)c1)O[C@H](Cc1ccc(O)c(O)c1)C(=O)O [rosmarinic acid, reference compound] | – | – | – | – | – | – | – | – | – | did not contribute to the alleviation of such cognitive function decline | – | – | – | – | not significantly restored | –
